Reference: US11766397B2, “Bioactive compositions comprising ficus serum fracton and methods to reduce the appearance of skin hyperpigmentation” (ISP INVESTMENTS LLC, priority 2010, dated 2023)

System: facial hyperpigmented spots in humans
Assay: In vivo testing for hyperpigmented spot reduction and melanin evenness (split face, vehicle controlled)
Parameters: species or system human
Conditions: for Melanin Evenness vs Vehicle / NC2SAF (spot area fraction) vs Vehicle: twice daily facial application
Protocol: A 9 week in-vivo study was conducted using a round robin, vehicle controlled, split face design including a 1 week normalization period with 270 subjects. The 270 subjects were screened according to inclusion/exclusion criteria which included the following:
• Has hyperpigmented spots around cheek and/or periorbital area on both sides of the face. • Has at least 1 hyperpigmented spot of 8-10 mm diameter, 4 spots of 4-6 mm or 10 spots of 2-3 mm diameter (sun spots., freckles, or melasma spots) or • equivalent spot area in the cheek area on each side of their face. • Is willing to refrain from sun exposure by using supplied UV lotion and physical UV blocks, such as a hat, to avoid facial sunburn, tanning or wind burn.
• Has been diagnosed as having atopy, eczema, psoriasis, or other chronic skin diseases. • Has obvious signs of facial skin disease (e.g., more than 5 pimples, areas of red scaling skin, superficial thin blood vessels, etc.). • Has significant areas of discoloration or scarring on the face. • Has more than 3 prominent moles (<3 mm) on the face.
Two hundred and seventy subjects were recruited for the study. Approximately 60 subjects dropped during the course of the study. Each subject received two coded test formulations for twice daily application to each half of the face. Images of the facial treatment sites were captured at baseline (week 0), and after 4 and 8 weeks of treatment and analyzed for changes to skin color and spot size and color. The product formulations included a vehicle control, the Vehicle+0.55% FSF, and the vehicle+5% vitamin B3 compound (Niacinamide).
Noncontact spectrophotometric intracutaneous analysis (SiaScopy, Astron Clinica, UK) was used to collect and analyze the subject images. The method used a digital camera (e.g., Fuji S2 digital SLR) as a […] and a flash lighting source (e.g., Sigma Super flash light source) to recover facial chromophore information. A cross polarized filter was placed in front of the camera and the lighting source to eliminate specular reflection.
Chromophore mapping of the concentration and distribution of eumelanin (melanin) and oxyhaemoglobin produces grayscale concentration maps of each of these chromophores. Image analysis software, such as Optimas 6.5, can be used to select a region of interest in each chromophore map from which mean grayscale values and spot area fraction are calculated. Spot area fraction refers to total area occupied by melanin spots as a percentage of the whole region of interest. A description of one type of chromophore mapping can be found in EP 1,810,614 and “The Distribution of Melanin in Skin Determined In Vivo”, British Journal of Dermatology, 2007, pp 620-628.

With `NC(=O)c1cccnc1` [Niacinamide] as the compound, how does the “Melanin Evenness vs Vehicle” value (4 weeks) read?
The value was “ns (ns = not significant (p > 0.3))”.

And the “NC2SAF (spot area fraction) vs Vehicle” value (4 weeks)?
Its value is “as”.

And the “Melanin Evenness vs Vehicle” value (8 weeks)?
Its value is “sig (sig = significant (p < 0.1))”.

What about the “NC2SAF (spot area fraction) vs Vehicle” value (8 weeks) of the same compound?
Its value is “sig (sig = significant (p < 0.1))”.

What about the reducing hyperpigmented spots (After 8 weeks) of the same compound?
The reducing hyperpigmented spots was “best performer”.
